PMC9848300, “Discovery of novel enasidenib analogues targeting inhibition of mutant isocitrate dehydrogenase 2 as antileukaemic agents” (Journal of Enzyme Inhibition and Medicinal Chemistry, 2023)
Like-named read-outs stand apart in the source and are kept apart here.

Legend:
CCRF-CEM = assay: NCI 60 antitumor screening (single dose / five doses); type: cell-based; settings: Homo sapiens, read-out: Growth inhibition percentage (GI %)
RPMI-8226 = assay: as above; type: cell-based; settings: Homo sapiens
SR = assay: as above; type: cell-based; settings: Homo sapiens, read-out: Growth inhibition percentage (GI %)
EKVX = assay: as above; type: cell-based; settings: Homo sapiens, read-out: Growth inhibition percentage (GI %)
HOP-92 = assay: as above; type: cell-based; settings: Homo sapiens
HCC-2998 = assay: NCI 60 antitumor screening (single dose); type: cell-based; settings: Homo sapiens; HCC-2998 (colon cancer), single dose 10 μM; read-out: Growth inhibition percentage (GI %)
Method in brief: (§1)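 At one concentration (10 μM), compounds are run in triplicate on 60 human cancer lines per the NCI method. Treated-cell growth is recorded as G%. Reported inhibition equals 100 − G%.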

SNB-19 = assay: NCI 60 antitumor screening (single dose); type: cell-based; settings: Homo sapiens; SNB-19 (CNS cancer), single dose 10 μM; read-out: Growth inhibition percentage (GI %)
Method in brief: (§2)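 GI% derived as 100 − G% from triplicate growth measurements in the NCI 60 human tumour panel, compound 10 μM, single dose, per NCI protocol.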

TK-10 = assay: NCI 60 antitumor screening (single dose); type: cell-based; settings: Homo sapiens
Method in brief: as §2

COLO 205 = assay: NCI 60 antitumor screening (single dose / five doses); type: cell-based; settings: Homo sapiens
HCT-116 = assay: as above; type: cell-based; settings: Homo sapiens
HCT-15 = assay: as above; type: cell-based; settings: Homo sapiens
SW-620 = assay: as above; type: cell-based, human; settings: Homo sapiens
SF-295 = assay: as above; type: cell-based; settings: Homo sapiens
SF-539 = assay: as above; type: cell-based; settings: Homo sapiens
LOX IMVI = assay: as above; type: cell-based; settings: Homo sapiens, read-out: Growth inhibition percentage (GI %)
MDA-MB-435 = assay: as above; type: cell-based; settings: Homo sapiens
SK-MEL-2 = assay: as above; type: cell-based; settings: Homo sapiens
UACC-62 = assay: as above; type: cell-based; settings: Homo sapiens
IGROV1 = assay: as above; type: cell-based; settings: Homo sapiens
NCI/ADR-RES = assay: as above; type: cell-based; settings: Homo sapiens, read-out: Growth inhibition percentage (GI %)
786-0 = assay: as above; type: cell-based; settings: Homo sapiens
A498 = assay: as above; type: cell-based; settings: Homo sapiens
RXF 393 = assay: as above; type: cell-based; settings: Homo sapiens
UO-31 = assay: as above; type: cell-based; settings: Homo sapiens
MDA-MB-231/ATCC = assay: as above; type: cell-based; settings: Homo sapiens
BT-549 = assay: as above; type: cell-based; settings: Homo sapiens
MDA-MB-468 = assay: as above; type: cell-based; settings: Homo sapiens
[1] = test system: 60 human subpanel cancer cell lines; assay: NCI 60 antitumor screening, mean over the panel (single dose); type: cell-based; settings: mean over 60 cancer cell lines, single dose 10 μM
Method in brief: as §1

SMILES: O=[N+]([O-])c1cccc(/C=N/Nc2nc(N/N=C/c3cccc([N+](=O)[O-])c3)nc(N3CCOCC3)n2)c1 [compound 6f, 2-(Morpholin-4-yl)-4,6-bis[(E)-2-[(3-nitrophenyl)methylidene]hydrazin-1-yl]-1,3,5-triazine]
- inhibition at 10 µM (CCRF-CEM; CCRF-CEM): 58.4%
- inhibition at 10 µM (RPMI-8226; RPMI-8226, read-out: Growth inhibition percentage (GI %)): 66.4%
- inhibition at 10 µM (SR; SR): 66%
- inhibition at 10 µM (EKVX; EKVX): 11%
- inhibition at 10 µM (HOP-92; HOP-92, read-out: Growth inhibition percentage (GI %)): 14.2%
- inhibition at 10 µM (HCC-2998): -2.57%
- inhibition at 10 µM (SNB-19): 4.49%
- inhibition at 10 µM (TK-10; TK-10, read-out: Growth inhibition percentage (GI %)): -45.7%
- inhibition at 10 µM (COLO 205; COLO 205, read-out: Growth inhibition percentage (GI %)): 44.2%
- inhibition at 10 µM (HCT-116; HCT-116, read-out: Growth inhibition percentage (GI %)): 35.6%
- inhibition at 10 µM (HCT-15; HCT-15, read-out: Growth inhibition percentage (GI %)): 53.2%
- inhibition at 10 µM (SW-620; SW-620, read-out: Growth inhibition percentage (GI %)): 18.4%
- inhibition at 10 µM (SF-295; SF-295, read-out: Growth inhibition percentage (GI %)): 13.7%
- inhibition at 10 µM (SF-539; SF-539, read-out: Growth inhibition percentage (GI %)): 6.2%
- inhibition at 10 µM (LOX IMVI; LOX IMVI): 39.5%
- inhibition at 10 µM (MDA-MB-435; MDA-MB-435, read-out: Growth inhibition percentage (GI %)): 9.84%
- inhibition at 10 µM (SK-MEL-2; SK-MEL-2, read-out: Growth inhibition percentage (GI %)): 4.93%
- inhibition at 10 µM (UACC-62; UACC-62, read-out: Growth inhibition percentage (GI %)): 21.1%
- inhibition at 10 µM (IGROV1; IGROV-1, read-out: Growth inhibition percentage (GI %)): 42.6%
- inhibition at 10 µM (NCI/ADR-RES; NCI/ADR-RES): 30.9%
- inhibition at 10 µM (786-0; 786-0, read-out: Growth inhibition percentage (GI %)): 30.4%
- inhibition at 10 µM (A498; A498, read-out: Growth inhibition percentage (GI %)): 13.1%
- inhibition at 10 µM (RXF 393; RXF 393, read-out: Growth inhibition percentage (GI %)): 28.1%
- inhibition at 10 µM (UO-31; UO-31, read-out: Growth inhibition percentage (GI %)): 50.7%
- inhibition at 10 µM (MDA-MB-231/ATCC; MDA-MB-231, read-out: Growth inhibition percentage (GI %)): 2.27%
- inhibition at 10 µM (BT-549; BT-549, read-out: Growth inhibition percentage (GI %)): 11.7%
- inhibition at 10 µM (MDA-MB-468; MDA-MB-468, read-out: Growth inhibition percentage (GI %)): 1.3%
- Mean GI % [1]: 23.39%

SMILES: O=C1Nc2ccc(Cl)cc2/C1=N\Nc1nc(N/N=C2/C(=O)Nc3ccc(Cl)cc32)nc(N2CCOCC2)n1 [compound 8b, (3E)-5-Chloro-3-[2–(4-{2-[(3E)-5-chloro-2-oxo-2,3-dihydro-1H-indol-3-ylidene]hydrazin-1-yl}6-(morpholin-4-yl)-1,3,5-triazin-2-yl)hydrazin-1-ylidene]-2,3-dihydro-1H-indol-2-one]
- inhibition at 10 µM (CCRF-CEM; CCRF-CEM (leukaemia), single dose 10 μM): 79.8%
- inhibition at 10 µM (RPMI-8226; RPMI-8226 (leukaemia), single dose 10 μM, read-out: Growth inhibition percentage (GI %)): 63.6%
- inhibition at 10 µM (SR; SR (leukaemia), single dose 10 μM): 70.8%
- inhibition at 10 µM (EKVX; EKVX (non-small cell lung cancer), single dose 10 μM): 14.8%
- inhibition at 10 µM (HOP-92; HOP-92 (non-small cell lung cancer), single dose 10 μM, read-out: Growth inhibition percentage (GI %)): 74%
- inhibition at 10 µM (HCC-2998): 24.5%
- inhibition at 10 µM (SNB-19): 109%
- inhibition at 10 µM (TK-10; TK-10 (renal cancer), single dose 10 μM, read-out: Growth inhibition percentage (GI %)): -18.5%
- inhibition at 10 µM (COLO 205; COLO 205 (colon cancer), single dose 10 μM, read-out: Growth inhibition percentage (GI %)): 51.3%
- inhibition at 10 µM (HCT-116; HCT-116 (colon cancer), single dose 10 μM, read-out: Growth inhibition percentage (GI %)): 54.6%
- inhibition at 10 µM (HCT-15; HCT-15 (colon cancer), single dose 10 μM, read-out: Growth inhibition percentage (GI %)): 8.4%
- inhibition at 10 µM (SW-620; SW-620 (colon cancer), single dose 10 μM, read-out: Growth inhibition percentage (GI %)): 25.7%
- inhibition at 10 µM (SF-295; SF-295 (CNS cancer), single dose 10 μM, read-out: Growth inhibition percentage (GI %)): 54.4%
- inhibition at 10 µM (SF-539; SF-539 (CNS cancer), single dose 10 μM, read-out: Growth inhibition percentage (GI %)): 84%
- inhibition at 10 µM (LOX IMVI; LOX IMVI (melanoma), single dose 10 μM): 76.8%
- inhibition at 10 µM (MDA-MB-435; MDA-MB-435 (melanoma), single dose 10 μM, read-out: Growth inhibition percentage (GI %)): 36.5%
- inhibition at 10 µM (SK-MEL-2; SK-MEL-2 (melanoma), single dose 10 μM, read-out: Growth inhibition percentage (GI %)): 34.7%
- inhibition at 10 µM (UACC-62; UACC-62 (melanoma), single dose 10 μM, read-out: Growth inhibition percentage (GI %)): 48.4%
- inhibition at 10 µM (IGROV1; IGROV-1, IGROV1 (ovarian cancer), single dose 10 μM, read-out: Growth inhibition percentage (GI %)): 45%
- inhibition at 10 µM (NCI/ADR-RES; NCI/ADR-RES (ovarian cancer), single dose 10 μM): 1.85%
- inhibition at 10 µM (786-0; 786-0, 786-0 (renal cancer), single dose 10 μM, read-out: Growth inhibition percentage (GI %)): 26.3%
- inhibition at 10 µM (A498; A498 (renal cancer), single dose 10 μM, read-out: Growth inhibition percentage (GI %)): 78.4%
- inhibition at 10 µM (RXF 393; RXF 393 (renal cancer), single dose 10 μM, read-out: Growth inhibition percentage (GI %)): 86.3%
- inhibition at 10 µM (UO-31; UO-31 (renal cancer), single dose 10 μM, read-out: Growth inhibition percentage (GI %)): 21.4%
- inhibition at 10 µM (MDA-MB-231/ATCC; MDA-MB-231/ATCC (breast cancer), single dose 10 μM, read-out: Growth inhibition percentage (GI %)): 63.7%
- inhibition at 10 µM (BT-549; BT-549 (breast cancer), single dose 10 μM, read-out: Growth inhibition percentage (GI %)): 106%
- inhibition at 10 µM (MDA-MB-468; MDA-MB-468 (breast cancer), single dose 10 μM, read-out: Growth inhibition percentage (GI %)): 76.4%
- Mean GI % [1]: 47.89%
